Like-named read-outs stand apart in the source and are kept apart here.
Legend:
HIV-1RF = experiment: XTT cytoprotection assay (antiviral activity); type: cell-based; conditions: for EC50: read-out: EC50; for loss of antiviral activity of BITA vs disulfide form, fold decrease: from Table 2
Excerpt: One exemplary means to determine antiviral activity is with CEM-SS cells and virus (e.g., HIV-1RF) (MOI=0.01) using the XTT (2,3-bis[2-methoxy-4-nitro-5-sulfophenyl]-5-[(phenylamino)carbonyl]-2H-tetrazolium hydroxide) cytoprotection assay, as described by Rice (1993) PNAS 90:9721-9724, and Rice (1997) Antimicrob. Agents Chemother. 41:419-426. Briefly, cells are infected with HIV-1 RF (or other virus to be tested) in the presence of various dilutions of test compounds (thiolesters and controls). The cultures are incubated for seven days. During this time control cultures without protective compounds (i.e., compounds with anti-viral activity) replicate virus, induce syncytia, and result in about 90% cell death. The cell death is measured by XTT dye reduction. XTT is a soluble tetrazolium dye that measures mitochondrial energy output, similar to MTT. Positive controls using dextran sulfate (an attachment inhibitor) or 3′-Azido-2′-3′-dideoxythymidine, AZT (a reverse transcriptase inhibitor) are added to each assay. Individual assays are done in duplicate using a sister plate method.
Effective antiviral concentrations providing 50% cytoprotection (EC50), and cellular growth inhibitory concentrations causing 50% cytotoxicity (IC50) are calculated.

CEM-SS cells = experiment: cells; type: cell-based
Method: Agents Chemother. […] Briefly, cells are infected with HIV-1 RF (or other virus to be tested) in the presence of various dilutions of test compounds (thiolesters and controls). The cultures are incubated for seven days. […] The cell death is measured by XTT dye reduction. XTT is a soluble tetrazolium dye that measures mitochondrial energy output, similar to MTT. Positive controls using dextran sulfate (an attachment inhibitor) or 3′-Azido-2′-3′-dideoxythymidine, AZT (a reverse transcriptase inhibitor) are added to each assay. Individual assays are done in duplicate using a sister plate method.

[1] = Table 1, 50% cytotoxicity, read-out: IC50
[2] = Table 2, 50% cytotoxicity, read-out: IC50

| Structure (SMILES) | EC50 (HIV-1RF; Table 1) [µM] | IC50 (CEM-SS cells; [1]) [µM] | also measured |
| --- | --- | --- | --- |
| Cc1cc(NS(=O)(=O)c2ccc(-n3sc4ccccc4c3=O)cc2)nc(C)n1 [Compound 19 BITA] | 6.5 | 39.7 | – |
| Cc1noc(NS(=O)(=O)c2ccc(NC(=O)c3ccccc3SSc3ccccc3C(=O)Nc3ccc(S(=O)(=O)Nc4onc(C)c4C)cc3)cc2)c1C [Compound 20 D] | 2.5 | 44.2 | – |
| O=c1c2ccccc2sn1-c1ccc(S(=O)(=O)Nc2cnc3ccccc3n2)cc1 [Compound 17 BITA] | 9.2 | 54.7 | – |
| COc1cc(NS(=O)(=O)c2ccc(NC(=O)c3ccccc3SSc3ccccc3C(=O)Nc3ccc(S(=O)(=O)Nc4cc(OC)nc(OC)n4)cc3)cc2)nc(OC)n1 [Compound 6 D] | 2.1 | 52.5 | – |
| O=c1c2ccccc2sn1-c1ccc(S(=O)(=O)Nc2ccc(Cl)nn2)cc1 [Compound 4 BITA] | 7.1 | 19.2 | – |
| O=C(Nc1ccc(S(=O)(=O)Nc2cnc3ccccc3n2)cc1)c1ccccc1SSc1ccccc1C(=O)Nc1ccc(S(=O)(=O)Nc2cnc3ccccc3n2)cc1 [Compound 17 D] | 0.72 | 22.2 | – |
| O=C(NS(=O)(=O)c1ccc(-n2sc3ccccc3c2=O)cc1)c1ccccc1 [Compound 3 BITA] | 9.3 | 49.5 | – |
| COc1cnc(NS(=O)(=O)c2ccc(NC(=O)c3ccccc3SSc3ccccc3C(=O)Nc3ccc(S(=O)(=O)Nc4ncc(OC)cn4)cc3)cc2)nc1 [Compound 8 D] | 2.1 | 55.5 | – |
| Cc1cc(NS(=O)(=O)c2ccc(NC(=O)c3ccccc3SSc3ccccc3C(=O)Nc3ccc(S(=O)(=O)Nc4cc(C)nc(C)n4)cc3)cc2)nc(C)n1 [Compound 19 D] | 1.9 | 18.2 | – |
| COc1ccnc(NS(=O)(=O)c2ccc(NC(=O)c3ccccc3SSc3ccccc3C(=O)Nc3ccc(S(=O)(=O)Nc4nccc(OC)n4)cc3)cc2)n1 [Compound 7 D] | 4.2 | 56.7 | – |
| O=C(Nc1ccc(S(=O)(=O)Nc2ccc(Cl)nn2)cc1)c1ccccc1SSc1ccccc1C(=O)Nc1ccc(S(=O)(=O)Nc2ccc(Cl)nn2)cc1 [Compound 4 D] | 2.9 | 18.3 | – |
| COc1cc(NS(=O)(=O)c2ccc(-n3sc4ccccc4c3=O)cc2)nc(OC)n1 [Compound 6 BITA] | 7.6 | 56.6 | – |
| COc1ccc(NS(=O)(=O)c2ccc(NC(=O)c3ccccc3SSc3ccccc3C(=O)Nc3ccc(S(=O)(=O)Nc4ccc(OC)nn4)cc3)cc2)nn1 [Compound 12 D] | 4.2 | 53.8 | – |
| CC(=O)NS(=O)(=O)c1ccc(-n2sc3ccccc3c2=O)cc1 [Compound 2 BITA, N-[4-(3-oxo-3H-benz[d]isothiazol-2-yl)phenylsulfonyl] acetamide] | – | – | EC50 (HIV-1RF; Human immunodeficiency virus 1, Table 1): 12.6 µM; IC50 (CEM-SS cells; Homo sapiens, CEM-SS, Table 1, 50% cytotoxicity, read-out: IC50): 34 µM |
| CC(=O)NS(=O)(=O)c1ccc(NC(=O)c2ccccc2SSc2ccccc2C(=O)Nc2ccc(S(=O)(=O)NC(C)=O)cc2)cc1 [Compound 2 D, N,N′-(2,2′-dithiodibenzoyl)-bis-sulfacetamide] | 1.5 | > 200 | – |
| Cc1noc(NS(=O)(=O)c2ccc(-n3sc4ccccc4c3=O)cc2)c1C [Compound 20 BITA] | 12.8 | 39 | – |
| NC(N)=NS(=O)(=O)c1ccc(NC(=O)c2ccccc2SSc2ccccc2C(=O)Nc2ccc(S(=O)(=O)N=C(N)N)cc2)cc1 [Compound 21 D] | 111 | > 316 | – |
| Cc1cc(C)nc(NS(=O)(=O)c2ccc(-n3sc4ccccc4c3=O)cc2)n1 [Compound 9 BITA] | 6.9 | 17.1 | – |
| NS(=O)(=O)c1ccc(CCNC(=O)c2ccccc2SSc2ccccc2C(=O)NCCc2ccc(S(N)(=O)=O)cc2)cc1 [Compound 24 D, N,N′-(2,2′-dithiodibenzoyl)-bis-4-(2-aminoethyl)benzene-sulfonamide] | – | – | EC50 (HIV-1RF; Table 2): 0.41 µM; IC50 (CEM-SS cells; [2]): 52.8 µM |
| O=C(NS(=O)(=O)c1ccc(NC(=O)c2ccccc2SSc2ccccc2C(=O)Nc2ccc(S(=O)(=O)NC(=O)c3ccccc3)cc2)cc1)c1ccccc1 [Compound 3 D] | 3.8 | 54.1 | – |
| NS(=O)(=O)c1ccc(CCn2sc3ccccc3c2=O)cc1 [Compound 24 BITA] | – | – | EC50 (HIV-1RF; Table 2): 2 µM; loss of antiviral activity of BITA vs disulfide form, fold decrease (HIV-1RF): 5 fold; IC50 (CEM-SS cells; [2]): 45.5 µM |
| O=C(Nc1ccc(S(=O)(=O)Nc2ncccn2)cc1)c1ccccc1SSc1ccccc1C(=O)Nc1ccc(S(=O)(=O)Nc2ncccn2)cc1 [Compound 5 D] | 2 | 46.4 | – |
| O=c1c2ccccc2sn1-c1ccc(S(=O)(=O)Nc2ncccn2)cc1 [Compound 5 BITA] | 6.5 | 50.8 | – |
| NS(=O)(=O)c1ccc(NS(=O)(=O)c2ccc(-n3sc4ccccc4c3=O)cc2)cc1 [Compound 22 BITA] | 6.2 | 18.1 | – |
| COc1cnc(NS(=O)(=O)c2ccc(-n3sc4ccccc4c3=O)cc2)nc1 [Compound 8 BITA] | 17.8 | 57.6 | – |
| COc1ccnc(NS(=O)(=O)c2ccc(-n3sc4ccccc4c3=O)cc2)n1 [Compound 7 BITA] | 8.8 | 57.4 | – |
| NS(=O)(=O)c1ccc(NS(=O)(=O)c2ccc(NC(=O)c3ccccc3SSc3ccccc3C(=O)Nc3ccc(S(=O)(=O)Nc4ccc(S(N)(=O)=O)cc4)cc3)cc2)cc1 [Compound 22 D] | 2.3 | – | IC50 (CEM-SS cells; read-out: toxicity / IC50): 43 µM |
| Cc1cc(C)nc(NS(=O)(=O)c2ccc(NC(=O)c3ccccc3SSc3ccccc3C(=O)Nc3ccc(S(=O)(=O)Nc4nc(C)cc(C)n4)cc3)cc2)n1 [Compound 9 D] | 1.6 | 32.2 | – |
| COc1ccc(NS(=O)(=O)c2ccc(-n3sc4ccccc4c3=O)cc2)nn1 [Compound 12 BITA] | 22.6 | 55.3 | – |
| NS(=O)(=O)c1ccc(Cn2sc3ccccc3c2=O)cc1 [Compound 23 BITA] | – | – | EC50 (HIV-1RF; Table 2): 13.8 µM; loss of antiviral activity of BITA vs disulfide form, fold decrease (HIV-1RF): 42 fold; IC50 (CEM-SS cells; read-out: toxicity / IC50): 53.7 µM |

Source: patent publication US7625917B2, “Thiolesters and uses thereof” (priority 1998, dated 2009)
